Read-outs that look alike come from different tables or passages of the source.
How the values were obtained:
[1] = biological target: T1, His-tagged human recombinant DDR-2 kinase domain (His-TEV-DDR2 467-855 aa) (Homo sapiens, UniProt Q16832); assay: Autophosphorylation assay for biochemical activity testing of DDR2 (HTRF)
T1 construct: His-TEV-DDR2 467-855 aa
T1 sequence (Q16832 467-855): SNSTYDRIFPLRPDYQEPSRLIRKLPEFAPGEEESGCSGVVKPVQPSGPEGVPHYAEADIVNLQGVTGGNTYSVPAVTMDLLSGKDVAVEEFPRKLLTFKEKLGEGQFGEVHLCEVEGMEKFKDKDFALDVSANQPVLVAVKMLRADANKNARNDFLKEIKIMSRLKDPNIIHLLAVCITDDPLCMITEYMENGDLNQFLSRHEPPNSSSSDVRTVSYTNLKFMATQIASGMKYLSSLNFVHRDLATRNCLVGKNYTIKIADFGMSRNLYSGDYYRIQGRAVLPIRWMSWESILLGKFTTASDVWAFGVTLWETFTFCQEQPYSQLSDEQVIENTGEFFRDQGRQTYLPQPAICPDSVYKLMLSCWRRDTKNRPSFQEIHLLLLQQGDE
In short: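 Phospho-tyrosine was detected by HTRF between XL665 anti-6His and cryptate anti-phosphotyrosine PT66 antibodies, using the emission ratio. Inhibition was referenced to the inhibitor-free reaction.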

[2] = biological target: T2, HEK293 transfected with human DDR2 (Homo sapiens, UniProt Q16832); assay: Phospho-DDR2 cellular assay (collagen II induced DDR2 phosphorylation, ELISA); assay type: cell-based; conditions: read-out: IC50 [p-DDR2]
T2 construct: expressed in transfected cells; host or cells: HEK293 (PLT460F_(DDR2)-P7-1)
T2 sequence (Q16832 22-855): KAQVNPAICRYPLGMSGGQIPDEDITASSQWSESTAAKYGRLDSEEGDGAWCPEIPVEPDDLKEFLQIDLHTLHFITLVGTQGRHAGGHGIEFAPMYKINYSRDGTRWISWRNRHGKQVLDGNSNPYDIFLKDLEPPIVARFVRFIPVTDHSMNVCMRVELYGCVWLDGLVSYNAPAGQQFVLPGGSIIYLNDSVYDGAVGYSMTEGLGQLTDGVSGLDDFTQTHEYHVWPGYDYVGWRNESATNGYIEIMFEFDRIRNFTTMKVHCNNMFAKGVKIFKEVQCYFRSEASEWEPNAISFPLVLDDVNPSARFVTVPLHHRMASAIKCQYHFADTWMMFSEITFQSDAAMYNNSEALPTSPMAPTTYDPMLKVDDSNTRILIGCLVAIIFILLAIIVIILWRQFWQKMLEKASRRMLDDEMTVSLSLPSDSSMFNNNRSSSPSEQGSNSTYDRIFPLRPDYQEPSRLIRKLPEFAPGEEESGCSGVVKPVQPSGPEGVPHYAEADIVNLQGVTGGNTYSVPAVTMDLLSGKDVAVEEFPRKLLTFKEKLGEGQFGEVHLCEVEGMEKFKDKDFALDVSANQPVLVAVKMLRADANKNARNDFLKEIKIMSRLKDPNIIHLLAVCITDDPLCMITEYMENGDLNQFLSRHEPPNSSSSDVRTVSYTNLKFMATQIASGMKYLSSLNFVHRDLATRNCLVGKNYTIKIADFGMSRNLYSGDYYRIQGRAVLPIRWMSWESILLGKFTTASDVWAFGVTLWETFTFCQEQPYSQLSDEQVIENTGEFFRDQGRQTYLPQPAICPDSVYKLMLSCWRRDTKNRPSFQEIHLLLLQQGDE
In short: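 Cells seeded 48 h in 10% FBS, serum-starved 8 h, then given compound (5% DMSO) with 50 μg/ml chicken collagen II for 16 h at 37 °C. Lysates captured on anti-DDR2 antibody plates; phospho-DDR2 detected with HRP anti-phosphotyrosine antibody by chemiluminescence.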

[3] = biochemical DDR2 autophosphorylation
[4] = 4 nM DDR2 kinase domain, 150 μM ATP, 150 min at 22° C.
[5] = HEK293 transfected with human DDR2, 50 μg/ml chicken collagen II, 16 h

Row | Structure (SMILES) | IC50 [1, 3] [nM] | IC50 ([2]; cellular phospho-DDR2) [nM] | IC50 [1, 4] [nM] | IC50 [2, 5] [nM]
1 | CNC(=O)c1cc(Oc2ccc(CNC(=O)Nc3cc(Cl)c(C)cc3OCC3CCCN3)cc2)ccn1 (stereo not drawn) [compound 182, 4-(4-{3-[5-Chloro-4-methyl-2-(pyrrolidin-2-ylmethoxy)-phenyl]-ureidomethyl}-phenoxy)-pyridine-2-carboxylic acid methylamide] | 59 | 30 |  | 
2 | CNC(=O)c1cc(Oc2ccc(CNC(=O)Nc3cccnc3Cl)cc2)ccn1 [compound 226, 4-{4-[3-(2-Chloro-pyridin-3-yl)-ureidomethyl]-phenoxy}-pyridine-2-carboxylic acid methylamide] | 19000 | 11000 |  | 
3 | CNC(=O)c1cc(Oc2ccc(CNC(=O)Nc3cc(C(F)(F)F)c(Cl)cc3OC3CCNCC3)cc2)ccn1 [compound 130, 4-(4-{3-[4-Chloro-2-(piperidin-4-yloxy)-5-trifluoromethyl-phenyl]-ureidomethyl}-phenoxy)-pyridine-2-carboxylic acid methylamide] | 34 | 24 |  | 
4 | CNC(=O)c1cc(Oc2ccc(CNC(=O)Nc3cc(Cl)c(C)cc3OCCN3CCNCC3)cc2)ccn1 [compound 179, 4-(4-{3-[5-Chloro-4-methyl-2-(2-piperazin-1-yl-ethoxy)-phenyl]-ureidomethyl}-phenoxy)-pyridine-2-carboxylic acid methylamide] | 160 | 38 |  | 
5 | CNC(=O)c1cc(Oc2ccc(CNC(=O)Nc3c(Cl)cncc3Cl)cc2)ccn1 [compound 84, 4-{4-[3-(3,5-Dichloro-pyridin-4-yl)-ureidomethyl]-phenoxy}-pyridine-2-carboxylic acid methylamide] | 810 | 745 |  | 
6 | CNC(=O)c1cc(Oc2ccc(CNC(=O)Nc3cc(C)c(Cl)cc3OCCN)cc2)ccn1 [compound 145, 4-(4-{3-[2-(2-Amino-ethoxy)-4-chloro-5-methyl-phenyl]-ureidomethyl}-phenoxy)-pyridine-2-carboxylic acid methylamide] | 91 | 65 |  | 
7 | CNC(=O)c1cc(Oc2ccc(CNC(=O)Nc3cc(C(F)(F)F)ccc3OCC3CCCN3)cc2)ccn1 (stereo not drawn) [compound 156, 4-(4-{3-[2-(Pyrrolidin-2-ylmethoxy)-5-trifluoromethyl-phenyl]-ureidomethyl}-phenoxy)-pyridine-2-carboxylic acid methylamide] | 43 | 16 |  | 
8 | CNC(=O)c1cc(Oc2ccc(CNC(=O)Nc3cc(C(F)(F)F)ccc3OCCN(C)C)cc2C)ccn1 [compound 150, 4-(4-{3-[2-(2-Dimethylamino-ethoxy)-5-trifluoromethyl-phenyl]-ureidomethyl}-2-methyl-phenoxy)-pyridine-2-carboxylic acid methylamide] | 42 | 10 |  | 
9 | CNCCOc1ccc(C(F)(F)F)cc1NC(=O)NCc1ccc(Oc2ccnc(C(=O)NC)c2)cc1 [compound 111, 4-(4-{3-[2-(2-Methylamino-ethoxy)-5-trifluoromethyl-phenyl]-ureidomethyl}-phenoxy)-pyridine-2-carboxylic acid methylamide] | 64 | 24 |  | 
10 | CNC(=O)c1cc(Oc2ccc(CNC(=O)Nc3cc(C(F)(F)F)cnc3Cl)cc2)ccn1 [compound 24] |  |  | 130 | 58
11 | CNCCOc1ccc(C)cc1NC(=O)NCc1ccc(Oc2ccnc(C(=O)NC)c2)c(C)c1 [compound 215, 4-(2-Methyl-4-{3-[5-methyl-2-(2-methylamino-ethoxy)-phenyl]-ureidomethyl}-phenoxy)-pyridine-2-carboxylic acid methylamide] | 69 | 40 |  | 
12 | COc1ccc(C(F)(F)F)cc1NC(=O)Nc1ccc(Cc2nc3cc[nH]c(=O)c3[nH]2)cc1 [compound 3] |  |  | 62 | 110
13 | CNC(=O)c1cc(Oc2ccc(CNC(=O)Nc3ccc(C)cn3)cc2)ccn1 [compound 210, 4-{4-[3-(5-Methyl-pyridin-2-yl)-ureidomethyl]-phenoxy}-pyridine-2-carboxylic acid methylamide] | 2000 | 1500 |  | 
14 | CNC(=O)c1cc(Oc2ccc(CNC(=O)Nc3cc(Cl)ccc3OC)cc2)ccn1 [compound 19] | 30 | 14 |  | 
15 | CNC(=O)c1cc(Oc2ccc(CNC(=O)Nc3cc(Cl)ccc3OC)cc2F)ccn1 [compound 232, 4-{4-[3-(5-Chloro-2-methoxy-phenyl)-ureidomethyl]-2-fluoro-phenoxy}-pyridine-2-carboxylic acid methylamide] | 52 | 19 |  | 
16 | CNC(=O)c1cc(Oc2ccc(CNC(=O)Nc3cc(C)c(Cl)cc3OCCN(C)C)cc2C)ccn1 [compound 139, 4-(4-{3-[4-Chloro-2-(2-dimethylamino-ethoxy)-5-methyl-phenyl]-ureidomethyl}-2-methyl-phenoxy)-pyridine-2-carboxylic acid methylamide] | 26 | 18 |  | 
17 | CNC(=O)c1cc(Oc2ccc(CNC(=O)Nc3cc(C)c(Cl)cc3OCCN3CCNCC3)cc2C)ccn1 [compound 143, 4-(4-{3-[4-Chloro-5-methyl-2-(2-piperazin-1-yl-ethoxy)-phenyl]-ureidomethyl}-2-methyl-phenoxy)-pyridine-2-carboxylic acid methylamide] | 77 | 66 |  | 
18 | CNC(=O)c1cc(Oc2ccc(COC(=O)Nc3ccc(Cl)c(C(F)(F)F)c3)cc2)ccn1 [compound 6] |  |  | 420 | 270
19 | CNC(=O)c1cc(Oc2ccc(CNC(=O)Nc3cc(C)c(Cl)cc3OC3CCNCC3)cc2)ccn1 [compound 124, 4-(4-{3-[4-Chloro-5-methyl-2-(piperidin-4-yloxy)-phenyl]-ureidomethyl}-phenoxy)-pyridine-2-carboxylic acid methylamide] | 66 | 40 |  | 
20 | O=C(Nc1ccc(Cc2nc3cc[nH]c(=O)c3[nH]2)cc1)Nc1cccc(C(F)(F)F)c1 [compound 4] |  |  | 25 | 320
21 | CNC(=O)c1cc(Oc2ccc(CNC(=O)Nc3cc(C(F)(F)F)c(Cl)cc3OCCN3CCNCC3)cc2)ccn1 [compound 128, 4-(4-{3-[4-Chloro-2-(2-piperazin-1-yl-ethoxy)-5-trifluoromethyl-phenyl]-ureidomethyl}-phenoxy)-pyridine-2-carboxylic acid methylamide] | 91 | 63 |  | 
22 | CNC(=O)c1cc(Oc2ccc(CNC(=O)Nc3cc(C(F)(F)F)ccc3OCCN3CCNCC3)cc2)ccn1 [compound 112, 4-(4-{3-[2-(2-Piperazin-1-yl-ethoxy)-5-trifluoromethyl-phenyl]-ureidomethyl}-phenoxy)-pyridine-2-carboxylic acid methylamide] | 130 | 47 |  | 
23 | CNC(=O)c1cc(Oc2ccc(CNC(=O)Nc3cc(C)ccn3)cc2)ccn1 [compound 212, 4-{4-[3-(4-Methyl-pyridin-2-yl)-ureidomethyl]-phenoxy}-pyridine-2-carboxylic acid methylamide] | 570 | 380 |  | 
24 | CNC(=O)c1cc(Oc2ccc(CNC(=O)Nc3cc(C)c(Cl)cc3OCCN(C)C)cc2)ccn1 [compound 118, 4-(4-{3-[4-Chloro-2-(2-dimethylamino-ethoxy)-5-methyl-phenyl]-ureidomethyl}-phenoxy)-pyridine-2-carboxylic acid methylamide] | 200 | 55 |  | 

— patent publication US20150225369A1, “DDR2 INHIBITORS FOR THE TREATMENT OF OSTEOARTHRITIS” (Merck Patent GmbH, priority 2012, published 2015)
